One experiment concerns MV-4-11 cells. As to the kind of experiment: Cell growth inhibition assay (CellTiter-Glo), MV-4-11. It is filed as cell-based. The conditions noted are these: Homo sapiens, MV4-11. In short, it runs like this: (§1)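 Cellular ATP (CellTiter-Glo luminescence) measured after 4 days at 37° C., 5% CO2 of compound exposure, top concentration 10 μM in 3-fold steps, 0.1% DMSO. Readings corrected for no-cell background and a day-0 plate, normalised to vehicle and medium wells; half-maximal and total growth inhibition from four-parameter curves.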

The subject of a further experiment is THP-1 cells. As to the kind of experiment: Cell growth inhibition assay (CellTiter-Glo), THP-1. Format: cell-based. The conditions noted are these: Homo sapiens. In short, it runs like this: as §1
On the technique in general: In ATP-based viability assays light output follows the ATP content of the culture.

The test system of the next experiment is K-562 cells. As to the kind of experiment: Cell growth inhibition assay (CellTiter-Glo), K-562. The following applies: for GI50: Homo sapiens, K562. It is filed as cell-based, human. In a few lines: as §1

For orientation: GI50 means the concentration giving 50% growth inhibition. Read a low GI50 as more potent growth inhibition. Regarding `CCOC(=O)N1CC(n2nc(C)c3c2C(=O)N(c2cc(C)c(=O)n(C)c2)C3c2ccc(Cl)cc2)C1` (stereo not shown) [Example 155, Ethyl 3-(4-(4-chlorophenyl)-5-(1,5-dimethyl-6-oxo-1,6-dihydropyridin-3-yl)-3-methyl-6-oxo-5,6-dihydropyrrolo[3,4-c]pyrazol-1(4H)-yl)azetidine-1-carboxylate], the GI50 in the experiment with MV-4-11 cells was found to be 73.4 nM; in the experiment on THP-1 cells, 120 nM; in the experiment on K-562 cells, 638 nM.

On to `CC(=O)Nc1cc(N2C(=O)c3c(c(C)nn3C3CC3)C2c2ccc(Cl)cc2)nn2c(C)nnc12` (stereo not shown) [Example 126, N-(6-(4-(4-chlorophenyl)-1-cyclopropyl-3-methyl-6-oxopyrrolo[3,4-c]pyrazol-5-(1H,4H,6H)-yl)-3-methyl-[1,2,4]triazolo[4,3-b]pyridazin-8-yl)acetamide], for which the 50% growth inhibitory concentration (GI50) was found to be 404 nM in the experiment with MV-4-11 cells, 576 nM with THP-1 cells and 4150 nM with K-562 cells.

As to `Cc1cc(N2C(=O)c3nn(C4CN(C)C4)c(C)c3C2c2ccc(Cl)cc2)cn2c(C)nnc12` (stereo not shown) [Example 158, 4-(4-chlorophenyl)-5-(3,8-dimethyl-[1,2,4]triazolo[4,3-a]pyridin-6-yl)-3-methyl-2-(1-methylazetidin-3-yl)-4,5-dihydropyrrolo-[3,4-c]pyrazol-6(2H)-one], the GI50 in the experiment on MV-4-11 cells came out at 26.6 nM; in the experiment with THP-1 cells, 142 nM; in the experiment with K-562 cells it was 484 nM.

Take `Cc1nn(C)c2c1C(c1ccc(Cl)cc1)N(c1cc(Cl)c(=O)n(C)c1)C2=O` (stereo not shown) [Example 58, 5-(5-chloro-1-methyl-6-oxo-1,6-dihydropyridin-3-yl)-4-(4-chlorophenyl)-1,3-dimethyl-4,5-dihydropyrrolo[3,4-c]pyrazol-6(1H)-one]: the GI50 worked out at 94.4 nM in the experiment on MV-4-11 cells, 189 nM in the experiment on THP-1 cells and 1140 nM with K-562 cells.

As for `CCn1nc(C)c2c1C(=O)N(c1cc(C)c3nnc(C)n3c1)C2c1ccc(F)cc1F` (stereo not shown) [Example 181, 4-(2,4-difluorophenyl)-5-(3,8-dimethyl-[1,2,4]triazolo[4,3-a]pyridin-6-yl)-1-ethyl-3-methyl-4,5-dihydropyrrolo[3,4-c]pyrazol-6(1H)-one], the GI50 in the experiment on MV-4-11 cells was found to be 47.1 nM; in the experiment on THP-1 cells, 51.9 nM; in the experiment on K-562 cells, 160 nM.

With `COc1ncc(-n2nc3c(c2C)C(c2ccc(Cl)cc2)N(c2cc(C)c(=O)n(C)c2)C3=O)c(OC)n1` (stereo not shown) [Example 56, 4-(4-chlorophenyl)-2-(2,4-dimethoxypyrimidin-5-yl)-5-(1,5-dimethyl-6-oxo-1,6-dihydropyridin-3-yl)-3-methyl-4,5-dihydropyrrolo[3,4-c]pyrazol-6(2H)-one], the values for the GI50 in the experiment with MV-4-11 cells, with THP-1 cells and in the experiment with K-562 cells were 57.4 nM, 70.2 nM and 265 nM, respectively.

Take `Cc1cc(N2C(=O)c3c(c(C4CC4)nn3C)[C@H]2c2ccc(Cl)cc2)cn2c(C)nnc12` [Example 164, (R)-4-(4-chlorophenyl)-3-cyclopropyl-5-(3,8-dimethyl-[1,2,4]triazolo[4,3-a]pyridin-6-yl)-1-methyl-4,5-dihydropyrrolo-[3,4-c]pyrazol-6(1H)-one]: the GI50 was found to be 7.69 nM with MV-4-11 cells, 9.6 nM in the experiment on THP-1 cells and 98.2 nM in the experiment on K-562 cells.

With `CNC(=O)n1nc(C)c2c1C(=O)N(c1cc(C)c(=O)n(C)c1)C2c1ccc(Cl)cc1` (stereo not shown) [Example 143, 4-(4-chlorophenyl)-5-(1,5-dimethyl-6-oxo-1,6-dihydropyridin-3-yl)-N,3-dimethyl-6-oxo-5,6-dihydropyrrolo-[3,4-c]pyrazole-1(4H)-carboxamide], the GI50 in the experiment with MV-4-11 cells was found to be 86 nM; in the experiment on THP-1 cells, 300 nM; with K-562 cells it was 1200 nM.

On to `Cc1nn(C2CC2)c2c1[C@@H](c1ccc(Cl)cc1)N(c1cc(C)c3nnc(C)n3c1)C2=O` [Example 119, (R)-4-(4-chlorophenyl)-1-cyclopropyl-5-(3,8-dimethyl-[1,2,4]triazolo[4,3-a]pyridin-6-yl)-3-methyl-4,5-dihydropyrrolo-[3,4-c]pyrazol-6(1H)-one], for which the GI50 was found to be 6.15 nM in the experiment on MV-4-11 cells, 9.45 nM in the experiment on THP-1 cells and 62 nM in the experiment with K-562 cells. Moreover, in the experiment with K-562 cells, the IC (TGI) was >10000 nM.

Regarding `CCc1nn(C2CC2)c2c1C(c1ccc(Cl)cc1)N(c1cc(OC)c3nnc(C)n3c1)C2=O` (stereo not shown) [Example 84, 4-(4-chlorophenyl)-1-cyclopropyl-3-ethyl-5-(8-methoxy-3-methyl-[1,2,4]triazolo[4,3-a]pyridin-6-yl)-4,5-dihydropyrrolo-[3,4-c]pyrazol-6(1H)-one], the GI50 in the experiment on MV-4-11 cells was found to be 58.3 nM; in the experiment on THP-1 cells, 86.9 nM; in the experiment on K-562 cells, 384 nM.

For `CCc1nn(C(=O)N(C)C)c2c1C(c1ccc(Cl)cc1)N(c1cc(C)c(=O)n(C)c1)C2=O` (stereo not shown) [Example 147, 4-(4-chlorophenyl)-5-(1,5-dimethyl-6-oxo-1,6-dihydropyridin-3-yl)-3-ethyl-N,N-dimethyl-6-oxo-5,6-dihydropyrrolo[3,4-c]pyrazole-1(4H)-carboxamide], the GI50 with MV-4-11 cells was 67 nM; with THP-1 cells it was 157 nM; in the experiment on K-562 cells, 792 nM.

For the compound `Cc1n[nH]c2c1C(c1ccc(F)cc1F)N(c1cc(C)c3nnc(C)n3c1)C2=O` (stereo not shown) [Example 172, 4-(2,4-difluorophenyl)-5-(3,8-dimethyl-[1,2,4]triazolo[4,3-a]pyridin-6-yl)-3-methyl-4,5-dihydropyrrolo[3,4-c]pyrazol-6(2H)-one], the GI50 in the experiment on MV-4-11 cells stood at 176 nM; with THP-1 cells, 254 nM; in the experiment with K-562 cells it was 1080 nM.

With `Cc1nn(C)c2c1C(c1ccc(Cl)cc1)N(c1cc(C)c(=O)n(C)c1)C2=O` (stereo not shown) [Example 57, 4-(4-chlorophenyl)-5-(1,5-dimethyl-6-oxo-1,6-dihydropyridin-3-yl)-1,3-dimethyl-4,5-dihydropyrrolo-[3,4-c]pyrazol-6(1H)-one], the GI50 in the experiment on MV-4-11 cells came to 69.5 nM; with THP-1 cells, 117 nM; with K-562 cells, 480 nM.

Regarding `CNC(=O)n1nc(C)c2c1C(=O)N(c1cc(C)c3nnc(C)n3c1)C2c1ccc(Cl)cc1` (stereo not shown) [Example 145, 4-(4-chlorophenyl)-5-(3,8-dimethyl-[1,2,4]triazolo[4,3-a]pyridin-6-yl)-N,3-dimethyl-6-oxo-5,6-dihydropyrrolo[3,4-c]pyrazole-1(4H)-carboxamide], the GI50 was found to be 49.9 nM in the experiment on MV-4-11 cells, 176 nM with THP-1 cells and 875 nM in the experiment with K-562 cells.

For the compound `Cc1nn(C2CN(C)C2)c2c1C(c1ccc(Cl)cc1)N(c1cc(C)c3nnc(C)n3c1)C2=O` (stereo not shown) [Example 157, 4-(4-chlorophenyl)-5-(3,8-dimethyl-[1,2,4]triazolo[4,3-a]pyridin-6-yl)-3-methyl-1-(1-methylazetidin-3-yl)-4,5-dihydropyrrolo[3,4-c]pyrazol-6(1H)-one], the GI50 stood at 50 nM in the experiment on MV-4-11 cells, 158 nM in the experiment on THP-1 cells and 534 nM with K-562 cells.

Take `Cc1cc(N2C(=O)c3c(cnn3C(C)C)C2c2ccc(Cl)cc2)cn(C)c1=O` (stereo not shown) [Example 36, 4-(4-chlorophenyl)-5-(1,5-dimethyl-6-oxo-1,6-dihydropyridin-3-yl)-1-isopropyl-4,5-dihydropyrrolo-[3,4-c]pyrazol-6(1H)-one]: the GI50 with MV-4-11 cells came out at 53.4 nM; in the experiment with THP-1 cells it was 103 nM; in the experiment on K-562 cells, 430 nM.

As for `Cc1nn(C(C)C)c2c1C(c1ccc(F)cc1F)N(c1cc(C)c3nnc(C)n3c1)C2=O` (stereo not shown) [Example 174, 4-(2,4-difluorophenyl)-5-(3,8-dimethyl-[1,2,4]triazolo[4,3-a]pyridin-6-yl)-1-isopropyl-3-methyl-4,5-dihydropyrrolo[3,4-c]pyrazol-6(1H)-one], the results for the GI50 in the experiment on MV-4-11 cells, in the experiment on THP-1 cells and in the experiment on K-562 cells were 26.7 nM, 43.8 nM and 158 nM, respectively.

Turning to `CCc1nn(C)c2c1C(c1ccc(Cl)cc1)N(c1cc(OC)c3nnc(C)n3c1)C2=O` (stereo not shown) [Example 105, 4-(4-chlorophenyl)-3-ethyl-5-(8-methoxy-3-methyl-[1,2,4]triazolo[4,3-a]pyridin-6-yl)-1-methyl-4,5-dihydropyrrolo-[3,4-c]pyrazol-6(1H)-one], the GI50 in the experiment with MV-4-11 cells stood at 102 nM; in the experiment on THP-1 cells, 188 nM; in the experiment with K-562 cells it was 729 nM.

Consider `CNC(=O)n1nc2c(c1C)C(c1ccc(Cl)cc1)N(c1cc(C)c(=O)n(C)c1)C2=O` (stereo not shown) [Example 144, 4-(4-chlorophenyl)-5-(1,5-dimethyl-6-oxo-1,6-dihydropyridin-3-yl)-N,3-dimethyl-6-oxo-5,6-dihydropyrrolo-[3,4-c]pyrazole-2(4H)-carboxamide], for which the results for the GI50 with MV-4-11 cells, in the experiment on THP-1 cells and in the experiment with K-562 cells were 59.8 nM, 214 nM and 432 nM, respectively.

For the compound `Cn1cc(N2C(=O)c3c(cnn3C3CC3)C2c2ccc(Cl)cc2)cc(Cl)c1=O` (stereo not shown) [Example 35, 5-(5-chloro-1-methyl-6-oxo-1,6-dihydropyridin-3-yl)-4-(4-chlorophenyl)-1-cyclopropyl-4,5-dihydropyrrolo[3,4-c]pyrazol-6(1H)-one], the GI50 in the experiment with MV-4-11 cells stood at 105 nM; with THP-1 cells, 239 nM; in the experiment with K-562 cells, 905 nM.

`COc1ncccc1-n1nc(C)c2c1C(=O)N(c1cc(C)c3nnc(C)n3c1)C2c1ccc(Cl)cc1F` (stereo not shown) [Example 184, 4-(4-chloro-2-fluorophenyl)-5-(3,8-dimethyl-[1,2,4]triazolo[4,3-a]pyridin-6-yl)-1-(2-methoxypyridin-3-yl)-3-methyl-4,5-dihydropyrrolo-[3,4-c]pyrazol-6(1H)-one]: the values for the GI50 in the experiment with MV-4-11 cells, with THP-1 cells and in the experiment with K-562 cells were 59.6 nM, 131 nM and 394 nM, respectively.

For `Cc1[nH]nc2c1C(c1ccc(Cl)cc1)N(c1cc(C)c(=O)n(C)c1)C2=O` (stereo not shown) [Example 27, 4-(4-chlorophenyl)-5-(1,5-dimethyl-6-oxo-1,6-dihydropyridin-3-yl)-3-methyl-4,5-dihydropyrrolo[3,4-c]pyrazol-6(2H)-one], the GI50 came to 55.9 nM in the experiment on MV-4-11 cells, 120 nM in the experiment with THP-1 cells and 463 nM with K-562 cells.

The record behind these values is patent publication US20160095843A1, “PYRAZOLOPYRROLIDINE DERIVATIVES AND THEIR USE IN THE TREATMENT OF DISEASE” (NOVARTIS AG, priority 2013, published 2016).
